SMILES strings stand for the structures.

The assay has as its system Zymosan-sensitized rats. The experiment in a line: Rodent model of zymosan-induced hyperalgesia: visceromotor response to colorectal distention. The format is in vivo, Sprague-Dawley rats. To be noted: two doses (time 0 and 16 h), intracolonic zymosan, CRD 80 mm Hg, 20 s, 4 h after zymosan, expressed as percentage of control, baseline = 100%. As to the method:
FIG. 1 is a graphical representation of the results of a study conducted in Zymosan-sensitized rats comparing the effect of (E)-4-(1,3-bis(cyclohexylmethyl)-1,2,3,6-tetrahydro-2,6-dioxo-9H-purin-8-yl)cinnamic acid nonaethylene glycol methyl ether ester ([…] and 25 mg/kg) versus vehicle. Results are reported as response to colorectal distention (CRD) (as a percent of control) with increasing dosage of 0, 12.5, and 25 mg/kg of compound (sensitized --▪--) as compared to baseline (--♦--).
Protocol for Evaluation of (E)-4-(1,3-bis(cyclohexylmethyl)-1,2,3,6-tetrahydro-2,6-dioxo-9H-purin-8-yl)cinnamic acid nonaethylene glycol methyl ether ester in a Rodent Model of Zymosan-Induced Hyperalgesia […]
The descending colon and rectum were distended by pressure-controlled inflation of a 7-8-cm-long flexible latex balloon tied around a flexible tube. […] Intracolonic pressure was continuously monitored by the aid of a pressure control device. Response was, quantified as the visceromotor response (VMR), a contraction of the abdominal and hindlimb musculature. EMG activity produced by contraction of the external oblique musculature was quantified using Spike2 software (Cambridge Electronic Designs). Each distension trial lasted 60 seconds, and EMG activity was quantitated in 1-second bins for 20 seconds before distension (baseline), during distention, and 20 seconds after distention. […]

For the molecule `COCCOCCOCCOCCOCCOCCOCCOCCOCCOC(=O)/C=C/c1ccc(-c2nc3c(=O)n(CC4CCCCC4)c(=O)n(CC4CCCCC4)c3[nH]2)cc1` [(E)-4-(1,3-bis(cyclohexylmethyl)-1,2,3,6-tetrahydro-2,6-dioxo-9H-purin-8-yl)cinnamic acid nonaethylene glycol methyl ether ester], the “response to colorectal distention (CRD), visceromotor response” value reads like this: (12.5 mg/kg oral gavage) “decreased the response to colorectal distention down to baseline levels”; (25 mg/kg oral gavage) “decreased the response to colorectal distention down to baseline levels”.
